Measured values: patent US8314142B2, “Dimers of artemisinin derivatives, preparation thereof and therapeutic use thereof” (Sanofi, priority 2006, dated 2012)

These molecules were tested on HCT116 cells (assay: Inhibition of cell proliferation of HCT116 cells (14C-thymidine incorporation, 96 hours)). Settings: Homo sapiens, HCT-116, 14C-thymidine incorporation after 96 hours.
Format: cell-based
Experimental: The products according to the invention have been the subject of pharmacological trials which make it possible to determine their antiproliferative activity. It was determined by measuring the inhibition of cell proliferation of HCT116 cells. The cells are inoculated in a cell culture medium at a concentration of 10 000 cells per well, in 0.17 ml of medium, and 20 μl of test product, at various concentrations, and 10 μl of Thymidine [methyl-14C] (100 μCi/ml—specific activity 47.90 mCi/mmol; NEN Technologies reference NEC568 batch 3550-001) are added, and then the cells are incubated at 37° C. and 5% CO2.
Medium used for the culture of HCT116 cells: DMEM medium 2 mM L-glutamine, 200 IU/ml penicillin, 200 μg/ml streptomycin and 10% (V/V) fetal calf serum (Life Technologies).
After 96 hours, the incorporation of ^14C-thymidine is counted in a liquid scintillation counter 1450 Microbeta Wallac Trilux. The results R are expressed in cpm (counts per minute) and converted to percentage of growth inhibition GI % by first subtracting the mean of the number of cpm of the wells without cells B and then by dividing by the number of cpm of the wells of the untreated cells C comprising 20 μl of medium for dilution of the product containing 1% of ethanol (GI %=(R−B)×100/C %).
The IC50 values are calculated with the aid of the equation 205 of the XLFit software (IDBS company, UK) by nonlinear regression analysis using the Marquardt algorithm (Donald W. MARQUARDT, J. Soc. industry appl., vol. 11, No. 2, June, 1963).

| SMILES | IC50 |
| --- | --- |
| C[C@@H]1CC[C@H]2[C@@H](C)[C@](OCC[S+]([O-])CCO[C@@]3(C(F)(F)F)O[C@@H]4O[C@]5(C)CC[C@H]6[C@H](C)CC[C@@H]([C@H]3C)[C@@]46OO5)(C(F)(F)F)O[C@@H]3O[C@@]4(C)CC[C@@H]1[C@]32OO4 [EX2] | 23 nM |
| C[C@@H]1CC[C@H]2[C@@H](C)[C@](OCCS(=O)(=O)CCO[C@@]3(C(F)(F)F)O[C@@H]4O[C@]5(C)CC[C@H]6[C@H](C)CC[C@@H]([C@H]3C)[C@@]46OO5)(C(F)(F)F)O[C@@H]3O[C@@]4(C)CC[C@@H]1[C@]32OO4 [EX3, (3S,5aS,6R,8aS,9R,10R,12R,12aR,3′S,5′aS,6′R,8′aS,-9′R,10′R,12′R,12′aR)-10,10′-[sulfonylbis(2,1-ethanediyloxy)]bis[decahydro-3,6,9-trimethyl-10-tri-fluoromethyl)-3,12-epoxy-12H-pyrano[4,3-j]-1,2-benzodioxepine] | 21 nM |
| C[C@@H]1CC[C@H]2[C@@H](C)[C@](OCCSCCO[C@@]3(C(F)(F)F)O[C@@H]4O[C@]5(C)CC[C@H]6[C@H](C)CC[C@@H]([C@H]3C)[C@@]46OO5)(C(F)(F)F)O[C@@H]3O[C@@]4(C)CC[C@@H]1[C@]32OO4 [EX1] | 47 nM |
| C[C@@H]1CC[C@H]2[C@@H](C)[C@](OCCN(C)CCO[C@@]3(C(F)(F)F)O[C@@H]4O[C@@]5(C)CC[C@H]6[C@H](C)CC[C@@H]([C@H]3C)[C@@]46OO5)(C(F)(F)F)O[C@@H]3O[C@@]4(C)CC[C@@H]1[C@]32OO4 [EX8, 2-[[(3R,5aS,6R,8aS,9R,10R,12R,12aR)-decahydro-3,6,9-trimethyl-10-(trifluoromethyl)-3,12-epoxy-12H-pyrano[4,3-j]-1,2-benzodioxepin-10-yl]oxy]-N-[2-[[(3R,5aS,6R,8aS,9R,10R,12R,12aR)-decahydro-3,6,9-trimethyl-10-(trifluoromethyl)-3,12-epoxy-12H-pyrano[4,3-j]-1,2-benzodioxepin-10-yl]oxy]ethyl]-N-methylethanamine] | 30 nM |
